pIC50: −log10 of the molar value.
Biological target: MMP-13 (Homo sapiens, UniProt P45452)
Assay: EnzoLyte 520 Generic MMP Assay Kit, 5-FAM/QXL520 FRET peptide substrate
Format: biochemical
Excerpt: The EnzoLyte™ 520 Generic MMP Assay Kit (AnaSpec Inc.) can detect the activity of several MMPs including MMP-1, 2, 3, 7, 8, 9, 13, and 14. This kit uses a 5-FAM/QXL™520 fluorescence resonance energy transfer (FRET) peptide as an MMP substrate.

Row | Structure (SMILES) | pIC50
1 | CNC(=O)[C@@H](NC(=O)c1ccc(-c2cccc(CN)c2)o1)C1CCOCC1 [5-[3-(Aminomethyl)phenyl]-N-[(1S)-2-(methylamino)-2-oxo-1-(tetrahydro-2H-pyran-4-yl)ethyl]-2-furamide] | 6.38
2 | CNC(=O)[C@@H](NC(=O)c1ccc(-c2cccc(CNC(=O)c3ccccc3)c2)o1)C(C)C [5-[3-(Benzoylamino-methyl)-phenyl]-furan-2-carboxylic acid ((S)-2-methyl-1-methylcarbamoyl-propyl)-amide] | 6.69
3 | CNC(=O)[C@@H](NC(=O)c1ccc(-c2ccc(-c3ccc4[nH]ccc4c3)cn2)o1)C(C)C [5-[5-(1H-Indol-5-yl)-pyridin-2-yl]-furan-2-carboxylic acid ((S)-2-methyl-1-methylcarbamoyl-propyl)-amide] | 6.59
4 | CNC(=O)[C@@H](NC(=O)c1ccc(-c2ccc(-c3cnc(N)nc3)cn2)o1)C(C)C [5-[5-(2-Amino-pyrimidin-5-yl)-pyridin-2-yl]-furan-2-carboxylic acid ((S)-2-methyl-1-methylcarbamoyl-propyl)-amide] | 6.42
5 | CNC(=O)[C@@H](NC(=O)c1ccc(-c2ccc(-c3cc(F)cc(F)c3)cn2)o1)C(C)C [5-[5-(3,5-Difluoro-phenyl)-pyridin-2-yl]-furan-2-carboxylic acid ((S)-2-methyl-1-methylcarbamoyl-propyl)-amide] | 6.43
6 | CNC(=O)[C@@H](NC(=O)c1ccc(-c2ccc(-c3cccc(F)c3)cn2)o1)C(C)C [5-[5-(3-Fluoro-phenyl)-pyridin-2-yl]-furan-2-carboxylic acid ((S)-2-methyl-1-methylcarbamoyl-propyl)-amide] | 6.49
7 | CNC(=O)[C@@H](NC(=O)c1ccc(-c2ccc(-c3ccc(C)cc3)cn2)o1)C(C)C [5-[5-(4-Methyl-phenyl)-pyridin-2-yl]-furan-2-carboxylic acid ((S)-2-methyl-1-methylcarbamoyl-propyl)-amide] | 6.74
8 | CNC(=O)[C@@H](NC(=O)c1ccc(-c2ccc(OCc3[nH]cnc3C)cn2)o1)C1CCOCC1 [5-[5-(5-Methyl-3H-imidazol-4-ylmethoxy)-pyridin-2-yl]-furan-2-carboxylic acid [(S)-methylcarbamoyl-(tetrahydro-pyran-4-yl)-methyl]-amide] | 6.38
9 | CNC(=O)[C@@H](NC(=O)c1ccc(-c2cccc(CNC(=O)c3ccc(C)c(C)c3)c2)o1)C(C)C [5-{3-[(3,4-Dimethyl-benzoylamino)-methyl]-phenyl}-furan-2-carboxylic acid ((S)-2-methyl-1-methylcarbamoyl-propyl)-amide] | 6.81
10 | CNC(=O)[C@@H](NC(=O)c1ccc(-c2cccc(CNC(=O)c3cccc(C#N)c3)c2)o1)C(C)C [5-{3-[(3-Cyano-benzoylamino)-methyl]-phenyl}-furan-2-carboxylic acid ((S)-2-methyl-1-methylcarbamoyl-propyl)-amide] | 6.80
11 | CNC(=O)[C@@H](NC(=O)c1ccc(-c2cccc(CNC(=O)c3cccc(N(C)C)c3)c2)o1)C(C)C [5-{3-[(3-Dimethylamino-benzoylamino)-methyl]-phenyl}-furan-2-carboxylic acid ((S)-2-methyl-1-methylcarbamoyl-propyl)-amide] | 6.67
12 | CNC(=O)[C@@H](NC(=O)c1ccc(-c2cccc(CNC(=O)c3cccc(C(C)C)c3)c2)o1)C(C)C [5-{3-[(3-Isopropyl-benzoylamino)-methyl]-phenyl}-furan-2-carboxylic acid ((S)-2-methyl-1-methylcarbamoyl-propyl)-amide] | 6.80
13 | CNC(=O)[C@@H](NC(=O)c1ccc(-c2cccc(CNC(=O)c3cccc(OC)c3)c2)o1)C(C)C [5-{3-[(3-Methoxy-benzoylamino)-methyl]-phenyl}-furan-2-carboxylic acid ((S)-2-methyl-1-methylcarbamoyl-propyl)-amide] | 6.79
14 | CNC(=O)[C@@H](NC(=O)c1ccc(-c2cccc(CNC(=O)c3cccc(C)c3)c2)o1)C(C)C [5-{3-[(3-Methyl-benzoylamino)-methyl]-phenyl}-furan-2-carboxylic acid ((S)-2-methyl-1-methylcarbamoyl-propyl)-amide] | 6.88
15 | CNC(=O)[C@@H](NC(=O)c1ccc(-c2cccc(CNC(=O)c3ccc(F)c(C(F)(F)F)c3)c2)o1)C(C)C [5-{3-[(3-Trifluoromethyl-4-fluoro-benzoylamino)-methyl]-phenyl}-furan-2-carboxylic acid ((S)-2-methyl-1-methylcarbamoyl-propyl)-amide] | 6.67
16 | CNC(=O)[C@@H](NC(=O)c1ccc(-c2cccc(CNC(=O)c3ccc(C#N)cc3)c2)o1)C(C)C [5-{3-[(4-Cyano-benzoylamino)-methyl]-phenyl}-furan-2-carboxylic acid ((S)-2-methyl-1-methylcarbamoyl-propyl)-amide] | 6.73
17 | CNC(=O)[C@@H](NC(=O)c1ccc(-c2cccc(CNC(=O)c3ccc(C(C)C)cc3)c2)o1)C(C)C [5-{3-[(4-Isopropyl-benzoylamino)-methyl]-phenyl}-furan-2-carboxylic acid ((S)-2-methyl-1-methylcarbamoyl-propyl)-amide] | 6.65
18 | CNC(=O)[C@@H](NC(=O)c1ccc(-c2cccc(CNC(=O)c3ccc(OC)cc3)c2)o1)C(C)C [5-{3-[(4-Methoxy-benzoylamino)-methyl]-phenyl}-furan-2-carboxylic acid ((S)-2-methyl-1-methylcarbamoyl-propyl)-amide] | 6.81

Compounds with a higher pIC50, results first:

Row | pIC50 | Structure (SMILES)
19 | 7.64 | CNC(=O)[C@@H](NC(=O)c1ccc(-c2ccc(-c3ccncc3)cn2)o1)C1CCCCC1 [5-[3,4′]Bipyridinyl-6-yl-furan-2-carboxylic acid ((S)-cyclohexyl-methylcarbamoyl-methyl)-amide]
20 | 8.22 | CNC(=O)[C@@H](NC(=O)c1ccc(-c2ccc(OCc3cc(C)nn3C)cc2)o1)C1CCCCC1 [5-[4-(2,5-Dimethyl-2H-pyrazol-3-ylmethoxy)-phenyl]-furan-2-carboxylic acid ((S)-cyclohexyl-methylcarbamoyl-methyl)-amide]
21 | 7.57 | CNC(=O)[C@@H](NC(=O)c1ccc(-c2ccc(OCc3[nH]cnc3C)cc2)o1)C1CCOCC1 [5-[4-(5-Methyl-3H-imidazol-4-ylmethoxy)-phenyl]-furan-2-carboxylic acid [(S)-methylcarbamoyl-(tetrahydro-pyran-4-yl)-methyl]-amide]
22 | 7.10 | CNC(=O)[C@@H](NC(=O)c1ccc(-c2ccc(OCc3cc(C)n(C)n3)cn2)o1)C(C)C [5-[5-(1,5-Dimethyl-1H-pyrazol-3-ylmethoxy)-pyridin-2-yl]-furan-2-carboxylic acid ((S)-2-methyl-1-methylcarbamoyl-propyl)-amide]
23 | 8.22 | CNC(=O)[C@@H](NC(=O)c1ccc(-c2ccc(OCc3cc4ccccc4o3)cn2)o1)C1CCCCC1 [5-[5-(1-Benzofuran-2-ylmethoxy)pyridin-2-yl]-N-[(1S)-1-cyclohexyl-2-(methylamino)-2-oxoethyl]furan-2-carboxamide]
24 | 7.04 | CNC(=O)[C@@H](NC(=O)c1ccc(-c2ccc(-c3ccc4cc[nH]c4c3)cn2)o1)C(C)C [5-[5-(1H-Indol-6-yl)-pyridin-2-yl]-furan-2-carboxylic acid ((S)-2-methyl-1-methylcarbamoyl-propyl)-amide]
25 | 8.70 | CNC(=O)[C@@H](NC(=O)c1ccc(-c2ccc(OCc3cc(C)nn3C)cn2)o1)C1CCCCC1 [5-[5-(2,5-Dimethyl-2H-pyrazol-3-ylmethoxy)-pyridin-2-yl]-furan-2-carboxylic acid ((S)-cyclohexyl-methylcarbamoyl-methyl)-amide]
26 | 7.66 | CNC(=O)[C@@H](NC(=O)c1ccc(-c2ccc(-c3ccc(C#N)cc3)cn2)o1)C(C)C [5-[5-(4-Cyano-phenyl)-pyridin-2-yl]-furan-2-carboxylic acid ((S)-2-methyl-1-methylcarbamoyl-propyl)-amide]
27 | 7.33 | CCOc1ccc(-c2ccc(-c3ccc(C(=O)N[C@H](C(=O)NC)C(C)C)o3)nc2)cc1 [5-[5-(4-Ethoxy-phenyl)-pyridin-2-yl]-furan-2-carboxylic acid ((S)-2-methyl-1-methylcarbamoyl-propyl)-amide]
28 | 7.11 | CNC(=O)[C@@H](NC(=O)c1ccc(-c2ccc(-c3ccc(F)cc3)cn2)o1)C(C)C [5-[5-(4-Fluoro-phenyl)-pyridin-2-yl]-furan-2-carboxylic acid ((S)-2-methyl-1-methylcarbamoyl-propyl)-amide]
29 | 7.54 | CNC(=O)[C@@H](NC(=O)c1ccc(-c2ccc(-c3ccc(OC(C)C)cc3)cn2)o1)C(C)C [5-[5-(4-Isopropoxy-phenyl)-pyridin-2-yl]-furan-2-carboxylic acid ((S)-2-methyl-1-methylcarbamoyl-propyl)-amide]
30 | 7.77 | CCNC(=O)[C@@H](NC(=O)c1ccc(-c2ccc(OCc3ccccc3)cn2)o1)C1CCCCC1 [5-[5-(Benzyloxy)pyridin-2-yl]-N-[(1S)-1-cyclohexyl-2-(ethylamino)-2-oxoethyl]furan-2-carboxamide]
31 | 8.00 | CNC(=O)[C@@H](NC(=O)c1ccc(-c2ccc(OCc3ccccc3)cn2)o1)C1CCCCC1 [5-[5-(Benzyloxy)pyridin-2-yl]-N-[(1S)-1-cyclohexyl-2-(methylamino)-2-oxoethyl]furan-2-carboxamide]
32 | 8.52 | CNC(=O)[C@@H](NC(=O)c1ccc(-c2ccc(OCc3ccccc3)cn2)o1)C1CCOCC1 [5-[5-(Benzyloxy)pyridin-2-yl]-N-[(1S)-2-(methylamino)-2-oxo-1-(tetrahydro-2H-pyran-4-yl)ethyl]furan-2-carboxamide]
33 | 7.31 | CNC(=O)[C@@H](NC(=O)c1ccc(-c2cccc(CNC(=O)c3cccc(C(F)(F)F)c3)c2)o1)C(C)C [5-{3-[(3-Trifluoromethyl-benzoylamino)-methyl]-phenyl}-furan-2-carboxylic acid ((S)-2-methyl-1-methylcarbamoyl-propyl)-amide]
34 | 6.96 | CNC(=O)[C@@H](NC(=O)c1ccc(-c2cccc(CNC(=O)c3ccc(N(C)C)cc3)c2)o1)C(C)C [5-{3-[(4-Dimethylamino-benzoylamino)-methyl]-phenyl}-furan-2-carboxylic acid ((S)-2-methyl-1-methylcarbamoyl-propyl)-amide]
